Experimental data from paper PMC10671693, “Design, Synthesis, and Antitumor Activity Evaluation of Proteolysis-Targeting Chimeras as Degraders of Extracellular Signal-Regulated Kinases 1/2” (International Journal of Molecular Sciences, 2023).
Entries after “also recorded” stand apart in the source; their conditions may differ. Where two headings read alike, the source gives them in different places.

Assays:
HCT116 mouse xenografts = tested on: HCT116 mouse xenografts; set-up: method as in PMID 27227380; conditions: cited from earlier work
ERK2 = conditions: cited from earlier work
ERK1 = conditions: cited from earlier work
tumor = tested on: tumor; set-up: method as in PMID 28376306; conditions: daily dose of 50 mg/kg; cited from earlier work
[1] = tested on: BRAF mutant and RAS mutant cell lines; set-up: method as in PMID 29247021, PMID 28939558; conditions: preclinical studies; cited from earlier work
A375 cells [2] = experiment: Cell proliferation (CCK8) assay, A375; assay type: cell-based; conditions: Homo sapiens, A-375, A375, 72 h, read-out: IC50 (growth inhibition, cytotoxicity)
Description: (§1) A375, HCT116, Calu-6, and B16-F10 cells were purchased from American Type Culture Collection (ATCC) and cultured in DMEM high glucose media (SH30022.01, Cytiva, Shanghai, China) supplemented with 10% fetal bovine serum (10099-144, Gibco, Carlsbad, CA, USA) and 1% penicillin/streptomycin (Solarbio, Beijing, China) in an incubator at 37 °C with 5% CO2.
(§2) A 96-well plate (3599, Corning, New York, NY, USA) was inoculated with 100 μL of complete medium containing 10,000 cells, and the experimental, control, and blank groups were established. Three parallel wells were used per concentration. After 10 h, the media from the experimental and control groups were replaced with a compound containing the indicated concentration of the complete medium. Cells were incubated for 72 h before 10 μL of CCK8 reagent (CA1210, Solarbio, Beijing, China) was added to each well and incubated for 1 h. Using a microplate reader (Tecan, Mannendorf, Switzerland), the absorbance at 450 nm was measured. The IC50 values were determined using GraphPad Prism 8 and nonlinear regression curve fitting.

HCT116 tumor = experiment: HCT116 subcutaneous xenograft model in nude mice; assay type: in vivo
Description: Male BALB/c nude mice of around 8 weeks old were purchased from Charles River (Beijing, China). Nude mice were raised in SPF-grade animal rooms and had access to water and food ad libitum. HCT116 colorectal cancer cells were grown in DMEM supplemented with 10% fetal calf serum and 1% penicillin/streptomycin under standard cell culture conditions. HCT116 xenografts were prepared by subcutaneously injecting 5× 10^6 cells suspended in PBS into the right flank of each male BALB/c nude mouse. Tumor growth was monitored via caliper measurement, and volume was calculated using the following equation: 0.5 × max (length/width) × min (length/width) × min (length/width). When the tumors reached an average of approximately 100 mm^3, the mice were randomized into groups of five. The mice were injected intraperitoneally once a day at doses of 6, 12, 25 mg/kg compound B1-10J and 25 mg/kg 5-FU. Body weights and tumor volumes were measured every 2–3 days. All studies were appropriately statistically powered.

ERK1/2 [3] = experiment: Western blot ERK1/2 protein degradation assay in HCT116 cells; assay type: cell-based, human
Description: A375, HCT116, Calu-6, and B16-F10 cells were purchased from American Type Culture Collection (ATCC) and cultured in DMEM high glucose media (SH30022.01, Cytiva, Shanghai, China) supplemented with 10% fetal bovine serum (10099-144, Gibco, Carlsbad, CA, USA) and 1% penicillin/streptomycin (Solarbio, Beijing, China) in an incubator at 37 °C with 5% CO2. Cells were cultured under the indicated conditions as described in “Cell culture”. Cells were seeded in 6-well plates (3516, Corning, New York, NY, USA). Compounds were dissolved in DMSO for storage (10 mM). Following compound treatment, cells were washed with PBS, scraped from the plate, and lysed using cell lysis buffer (Applygen, Beijing, China). After the protein in the cell lysate was quantified via the BCA quantification method, the samples were placed in a metal bath at 100 °C and heated for 5 min. Cell lysates were separated using a 10% SDS–PAGE gel and transferred to PVDF membranes (Merck Millipore, Burlington, MA, USA). The PVDF membrane was blocked with 5% nonfat dry milk in TBST for one hour. The PVDF membrane was transferred to the antibody diluent and incubated overnight at 4 °C. PVDF membranes were washed three times with TBST for 5 min each and then incubated with the appropriate HRP-conjugated secondary antibody for 1 h at room temperature. After washing three more times with TBST, the PVDF membrane was stained with a hypersensitive ECL chemiluminescence reagent (Biodragon, Beijing, China) and then imaged with Tanon 5200. Grayscale quantitative analysis was performed using ImageJ software. Statistical analysis was performed using GraphPad Prism 8. DC50 and Dmax values were fitted using a four-parameter [inhibitor] versus response and reported directly from the Prism output. Mean ± SD and unpaired t tests were performed in GraphPad Prism.

Calu-6 cells = experiment: Cell proliferation (CCK8) assay, Calu-6; assay type: cell-based; conditions: Homo sapiens, Calu-6, 72 h, read-out: IC50 (growth inhibition, cytotoxicity)
Description: as §1, §2

ERK1/2 [4] = experiment: Western blot ERK1/2 protein degradation assay in A375 cells; assay type: cell-based, human
Description: as §1
Cells were cultured under the indicated conditions as described in “Cell culture”. Cells were seeded in 6-well plates (3516, Corning, New York, NY, USA). Compounds were dissolved in DMSO for storage (10 mM). Following compound treatment, cells were washed with PBS, scraped from the plate, and lysed using cell lysis buffer (Applygen, Beijing, China). After the protein in the cell lysate was quantified via the BCA quantification method, the samples were placed in a metal bath at 100 °C and heated for 5 min. Cell lysates were separated using a 10% SDS–PAGE gel and transferred to PVDF membranes (Merck Millipore, Burlington, MA, USA). The PVDF membrane was blocked with 5% nonfat dry milk in TBST for one hour. The PVDF membrane was transferred to the antibody diluent and incubated overnight at 4 °C. PVDF membranes were washed three times with TBST for 5 min each and then incubated with the appropriate HRP-conjugated secondary antibody for 1 h at room temperature. After washing three more times with TBST, the PVDF membrane was stained with a hypersensitive ECL chemiluminescence reagent (Biodragon, Beijing, China) and then imaged with Tanon 5200. Grayscale quantitative analysis was performed using ImageJ software. Statistical analysis was performed using GraphPad Prism 8. DC50 and Dmax values were fitted using a four-parameter [inhibitor] versus response and reported directly from the Prism output. Mean ± SD and unpaired t tests were performed in GraphPad Prism.

HCT116 cells = experiment: Cell proliferation (CCK8) assay, HCT116; assay type: cell-based, human; conditions: HCT116, 72 h, read-out: IC50 (growth inhibition, cytotoxicity)
Description: as §1, §2

ERK1/2 [5] = experiment: Western blot ERK1/2 protein degradation assay in Calu-6 cells; assay type: cell-based, human; conditions: 48 h, Western blot and grayscale quantification
Description: (§3) A375, HCT116, Calu-6, and B16-F10 cells were purchased from American Type Culture Collection (ATCC) and cultured in DMEM high glucose media (SH30022.01, Cytiva, Shanghai, China) supplemented with 10% fetal bovine serum (10099-144, Gibco, Carlsbad, CA, USA) and 1% penicillin/streptomycin (Solarbio, Beijing, China) in an incubator at 37 °C with 5% CO2. Cells were cultured under the indicated conditions as described in “Cell culture”. Cells were seeded in 6-well plates (3516, Corning, New York, NY, USA). Compounds were dissolved in DMSO for storage (10 mM). Following compound treatment, cells were washed with PBS, scraped from the plate, and lysed using cell lysis buffer (Applygen, Beijing, China). After the protein in the cell lysate was quantified via the BCA quantification method, the samples were placed in a metal bath at 100 °C and heated for 5 min. Cell lysates were separated using a 10% SDS–PAGE gel and transferred to PVDF membranes (Merck Millipore, Burlington, MA, USA). The PVDF membrane was blocked with 5% nonfat dry milk in TBST for one hour. The PVDF membrane was transferred to the antibody diluent and incubated overnight at 4 °C. PVDF membranes were washed three times with TBST for 5 min each and then incubated with the appropriate HRP-conjugated secondary antibody for 1 h at room temperature. […] Grayscale quantitative analysis was performed using ImageJ software. […]

A375 cells [6] = experiment: Transwell migration assay; assay type: cell-based, human; conditions: 24 h
Description: A total of 100 µL of FBS-free DMEM high-glucose medium containing 20,000 cells was added to the upper layer of the Transwell chamber of a 24-well plate (3422, Corning, New York, NY, USA), and a complete medium containing 10% FBS was added to the lower layer. The experimental group and the control group were established. The control group used DMSO (DMSO concentration in the culture medium was no more than 0.5% in each well), and the specified concentration of compounds was added to the medium of the experimental group. The cells were then placed in an incubator for 24 h. The cells were washed with PBS, the cells in the upper layer of the Transwell chamber were wiped off with a cotton swab, and the cells were fixed with cold methanol for 15 min. The cells were stained with crystal violet reagent and observed and photographed under a microscope. Then, crystal violet was washed with 33% acetic acid and the absorbance was measured at a wavelength of 590 nm. Graphing with GraphPad Prism 8 after counting cells was performed.

ERK1/2 [7] = experiment: Western blot ERK1/2 protein degradation assay in B16-F10 cells; assay type: cell-based; conditions: B16-F10 murine melanoma cells, 48 h
Description: as §3

For `Cn1nccc1Nc1nccc(-c2ccn([C@H](CO)c3ccc(Cl)c(F)c3)c(=O)c2)n1` [GDC-0994, (S)-1-(1-(4-Chloro-3-fluorophenyl)-2-hydroxyethyl)-4-(2-((1-methyl-1H-pyrazol-5-yl)amino)pyrimidin-4-yl)pyridin-2(1H)-one], the antitumor activity (HCT116 mouse xenografts) is listed as “potent antitumor activity”, the IC50 (ERK2) is listed as […] and the IC50 (ERK1) is listed as […].

For `Cc1cccc(CN2C(=O)c3cc(-c4nc(Nc5ccnn5C)ncc4C)cn3C[C@H]2C)n1` [compound 35], the IC50 (ERK2) is listed as < 0.3 nM and the antitumor effect (tumor) is listed as “significant tumor regression”.

In the case of `CC(C)Nc1cc(-c2c[nH]c(C(=O)N[C@H](CO)c3cccc(Cl)c3)c2)c(Cl)cn1` [BVD-523], the anticancer activity [1] is given as “demonstrated anticancer activity”, the Ki (ERK2) is given as 0.04 nM and the Ki (ERK1) is given as < 0.3 nM.

For `Cc1cccc(CN2C(=O)c3cc(-c4nc(Nc5ccnc(C#CCCN(C)CCCCCCCCCCNc6cccc7c6C(=O)N(C6CCC(=O)NC6=O)C7=O)c5)ncc4C)cn3C[C@H]2C)n1` (stereo partly shown) [Compound B1-10J], the IC50 (A375 cells [2]) was > 30 µM, the tumor growth inhibition (HCT116 tumor; 25 mg/kg daily, intraperitoneal, up until day 19) was “approximately 50%” and the “tumor growth inhibition, dose dependence” value (HCT116 tumor; 6, 12, 25 mg/kg Q.D., intraperitoneal) was “dose-dependent manner”. For the same compound, the “antitumor effect (in words)” value (HCT116 tumor; daily dose of 25 mg/kg, intraperitoneal, 25 mg/kg) was “more effective at a 25 mg/kg dose than 5-FU”, the “body weight / tolerability” value (HCT116 tumor; nude mice with HCT116 xenograft, during treatment) was “well-tolerated” and the “duration of ERK1/2 degradation” value (ERK1/2 [3]; 1 μM) was “up to 72 h”. For the same compound, the “time at which ERK1/2 degradation nearly reached its highest level” value (ERK1/2 [3]; 1 μM) was 24 h, the “time at which ERK1/2 protein began to degrade” value (ERK1/2 [3]; 1 μM) was 6 h and the DC50 (ERK1/2 [3]; 48 h, Western blot and grayscale quantification) was 102 nM. For the same compound, the IC50 (Calu-6 cells) was 15.9 µM, the “time after which ERK1/2 protein level returned to normal” value (ERK1/2 [4]; 1 μM) was > 48 h and the “time at which ERK1/2 degradation nearly reached its highest level” value (ERK1/2 [4]; 1 μM) was 24 h. For the same compound, the “time at which ERK1/2 protein began to degrade” value (ERK1/2 [4]; 1 μM) was 6 h, the “ERK1/2 degradation with/without MG132 and MLN4924” value (ERK1/2 [4]; 24 h, B1-10J 1 μM, MG132 1 μM, MLN4924 1 μM) was “only degraded by B1-10J alone” and the “concentration dependence of ERK1/2 degradation (hook effect)” value (ERK1/2 [4]; 24 h, large range of concentrations) was “typical “hook” effect”. The “ERK1/2 degradative activity (in words)” value (ERK1/2 [4]; 48 h, Western blot) was “slightly increased DC50; also recorded: effective ERK1/2 degraders”, the DC50 (ERK1/2 [4]; 48 h, Western blotting and grayscale quantification) was 498 ± 369 nM and the IC50 (HCT116 cells) was 2100 nM. The IC50 (HCT116 cells; Homo sapiens, HCT-116, 72 h) was 2200 nM, the DC50 (ERK1/2 [5]) was 85 nM and the “decrease of migration rate” value (A375 cells [6]; 1 μM, crystal violet absorbance 590 nm) was “more than 50%”. For the same compound, the “cell migration (in words)” value (A375 cells [6]; Transwell chamber) was “dose-dependently inhibited; also recorded: decreased markedly; also recorded: significantly prevented the migration” and the “ERK1/2 degradative activity (in words)” value (ERK1/2 [7]) was “weak degradative activity”.
